Experimental data reported in article PMC10256634, “Comparative in vivo toxicokinetics of silver powder, nanosilver and soluble silver compounds after oral administration to rats” (Archives of Toxicology, 2023).

Key:
[1] = Toxicokinetics after single oral gavage dose, total Ag in whole blood (ICP-MS)
[2] = Absolute bioavailability (F value) from single-dose oral and i.v. blood AUC; assay type: in vivo, Sprague–Dawley rats; conditions: single-dose oral vs i.v. AUC; data not shown
Experimental: (§1) All in vivo and analytical experimental segments were performed in accordance with Good Laboratory Practice standards (OECD [1998]) and the adopted TK experimental design conformed to approaches set out in OECD TG 417 ([2010]). Comparative TK data for the various test items were obtained after single doses, and repeated dose administration for 28 days. This was based on measurement of Ag levels in whole blood at various timepoints, and also total Ag content in tissues (in the repeated dose study phase). This approach facilitated a direct quantitative comparison of parameters such as bioavailability, achieved systemic exposure and the delivered Ag dose to tissues after administration of the different Ag test items. Determination of single-dose p.o. and i.v. blood-level profiles was intended to provide information on absolute bioavailability (F value). Parallel vehicle control groups were included within each phase.
Animals (4 per sex/per treatment level) received test item via i.v. injection or oral gavage administration. Intravenous injection (bolus) was via the tail vein. Oral gavage administration was performed using a suitable graduated syringe and a rubber catheter. Dosing volumes for i.v. and oral administration were calculated based on the individual animal bodyweights.

[3] = Toxicokinetics after 28 days repeated oral gavage dosing, total Ag in whole blood (ICP-MS); conditions: for AUC0-t / DN AUC0-t: 0 to 96 h post-dose
[4] = Total Ag content in tissues after 28 days repeated oral dosing (ICP-MS); assay type: in vivo, Sprague–Dawley rats
Excerpt: as §1, with “Comparative” for “All in vivo and analytical experimental segments were performed in accordance with Good Laboratory Practice standards (OECD [1998]) and the adopted TK experimental design conformed to approaches set out in OECD TG 417 ([2010]). Comparative”
Following final blood sampling, animals were euthanised using carbon dioxide asphyxiation, with subsequent exsanguination, prior to macroscopic examination for the investigation of any abnormalities. Tissues for analysis of total Ag content were obtained from animals administered the test items for 28 days. The tissue set comprised: brain (whole), bone marrow (from both femurs), small intestine (duodenum/ileum/jejenum), liver, spleen, ovaries, testes (excluding epididymides) and uterus. The luminal contents of GI tract samples were thoroughly flushed out with cold purified water. After weighing, tissues were retained frozen (− 20 °C).
Analysis occurred within the 48-day assured stability period.
All bioanalytical methods underwent validation before deployment.

[5] = single oral dose 5 mg/kg bw [Ag equivalent 3.25 AgAc, 3.2 AgNO3], female
[6] = single oral dose 5 mg/kg bw [Ag equivalent 3.25 AgAc, 3.2 AgNO3], male
[7] = single oral dose 175 [114 Ag] mg/kg bw, female
[8] = single oral dose 175 [114 Ag] mg/kg bw, male
[9] = 28 d oral 5 mg/kg bw/d [Ag equivalent 3.25 AgAc, 3.2 AgNO3], female
[10] = 28 d oral 5 mg/kg bw/d [Ag equivalent 3.25 AgAc, 3.2 AgNO3], male
[11] = 28 d oral 175 [114 Ag] mg/kg bw/d, female
[12] = 28 d oral 175 [114 Ag] mg/kg bw/d, male
[13] = 28 d oral 5 mg/kg bw/d [Ag equivalent 3.25 AgAc, 3.2 AgNO3]
[14] = 28 d oral 175 [114 Ag] mg/kg bw/d

SMILES: CC(=O)[O-].[Ag+] [AgAc, Silver(I) acetate]
- AUC0-t [1, 5]: 2360 ng·h/mL
- Cmax [1, 5]: 108 ng/mL
- DN AUC0-t [1, 5]: 726 (ng.h/mL)/(mg/kg bw/d)
- DN AUC(0–24) [1, 5]: 431 (ng.h/mL)/(mg/kg bw/d)
- Tmax [1, 5]: 3.5 h
- t1/2 [1, 5]: 24.5 h
- AUC0-t [1, 6]: 1430 ng·h/mL
- Cmax [1, 6]: 71.6 ng/mL
- DN AUC0-t [1, 6]: 440 (ng.h/mL)/(mg/kg bw/d)
- DN AUC(0–24) [1, 6]: 323 (ng.h/mL)/(mg/kg bw/d)
- Tmax [1, 6]: 5 h
- t1/2 [1, 6]: 23.2 h
- AUC0-t [1, 7]: 31,100 ng.h/mL
- Cmax [1, 7]: 632 ng/mL
- DN AUC0-t [1, 7]: 273 (ng.h/mL)/(mg/kg bw/d)
- DN AUC(0–24) [1, 7]: 87 (ng.h/mL)/(mg/kg bw/d)
- Tmax [1, 7]: 15.3 h
- t1/2 [1, 7]: 25.5 h
- AUC0-t [1, 8]: 23,300 ng.h/mL
- Cmax [1, 8]: 367 ng/mL
- DN AUC0-t [1, 8]: 204 (ng.h/mL)/(mg/kg bw/d)
- DN AUC(0–24) [1, 8]: 55 (ng.h/mL)/(mg/kg bw/d)
- Tmax [1, 8]: 20.3 h
- absolute bioavailability (F value) [2]: ≤ 5%
- AUC0-t [3, 9]: 10,200 ng.h/mL
- DN AUC0-t [3, 9]: 2960 (ng.h/mL)/(mg/kg bw/d)
- AUC0-t [3, 10]: 6220 ng·h/mL
- DN AUC0-t [3, 10]: 1770 (ng.h/mL)/(mg/kg bw/d)
- Cmax [3, 9]: 216 ng/mL
- Tmax [3, 9]: 3 h
- t1/2 [3, 9]: 41.3 h
- Cmax [3, 10]: 153 ng/mL
- Tmax [3, 10]: 7.5 h
- t1/2 [3, 10]: 32.1 h
- AUC0-t [3, 11]: 51,000 ng.h/mL
- DN AUC0-t [3, 11]: 400 (ng.h/mL)/(mg/kg bw/d)
- AUC0-t [3, 12]: 43,000 ng.h/mL
- DN AUC0-t [3, 12]: 342 (ng.h/mL)/(mg/kg bw/d)
- Cmax [3, 11]: 930 ng/mL
- Tmax [3, 11]: 3 h
- t1/2 [3, 11]: 40.4 h
- Cmax [3, 12]: 766 ng/mL
- Tmax [3, 12]: 3 h
- t1/2 [3, 12]: 36.3 h
- Silver level in ovary [4, 13]: 2197 ng Ag/g tissue
- Silver level in testis [4, 13]: 167 ng Ag/g tissue
- Silver level in uterus [4, 13]: 188 ng Ag/g tissue
- Silver level in GI tract [4, 9]: 3797 ng Ag/g tissue
- Silver level in bone marrow [4, 9]: 126 ng Ag/g tissue
- Silver level in brain [4, 9]: 169 ng Ag/g tissue
- Silver level in liver [4, 9]: 305 ng Ag/g tissue
- Silver level in spleen [4, 9]: 990 ng Ag/g tissue
- Silver level in GI tract [4, 10]: 2770 ng Ag/g tissue
- Silver level in bone marrow [4, 10]: 62 ng Ag/g tissue
- Silver level in brain [4, 10]: 142 ng Ag/g tissue
- Silver level in liver [4, 10]: 55.4 ng Ag/g tissue
- Silver level in spleen [4, 10]: 283 ng Ag/g tissue
- Silver level in ovary [4, 14]: 39668 ng Ag/g tissue
- Silver level in testis [4, 14]: 1531 ng Ag/g tissue
- Silver level in uterus [4, 14]: 11094 ng Ag/g tissue
- Silver level in GI tract [4, 11]: 103814 ng Ag/g tissue
- Silver level in bone marrow [4, 11]: 46761 ng Ag/g tissue
- Silver level in brain [4, 11]: 1455 ng Ag/g tissue
- Silver level in liver [4, 11]: 21872 ng Ag/g tissue
- Silver level in spleen [4, 11]: 141560 ng Ag/g tissue
- Silver level in GI tract [4, 12]: 83211 ng Ag/g tissue
- Silver level in bone marrow [4, 12]: 21373 ng Ag/g tissue
- Silver level in brain [4, 12]: 1458 ng Ag/g tissue
- Silver level in liver [4, 12]: 22660 ng Ag/g tissue
- Silver level in spleen [4, 12]: 96379 ng Ag/g tissue
- Ag in tissue concentrations, comparison between test items ([4]; 28 d oral, matched 35–36 mg Ag/kg bw/d, silver acetate vs nanosilver or silver powder, nanosilver vs silver powder (except spleen of male animals), p < 0.05): significantly higher in all tissues
